Measurements: patent US5521173A, “Tricyclic benzazepine vasopressin antagonists” (American Home Products Corporation, priority 1995, dated 1996)

Biological target: T1, Rat Hepatic V1 Receptors (Rattus norvegicus, UniProt P30560)
T1 construct: Rat liver plasma membranes expressing the vasopressin V1 receptor subtypes; from tissue; host or cells: rat liver plasma membranes (sucrose density gradient)
Assay: Binding Assay to Rat Hepatic V1 Receptors
Details: rat hepatic V1 (no asterisk)
Protocol: Binding Assay to Rat Hepatic V1 Receptors
Rat liver plasma membranes expressing the vasopressin V1 receptor subtypes are isolated by sucrose density gradient according to the method described by Lesko et al., (1973). These membranes are quickly suspended in 50.0 mM Tris.HCl buffer, pH 7.4, containing 0.2% bovine serum albumin (BSA) and 0.1 mM phenylmethylsulfonylfluoride (PMSF) and kept frozen at -70° C. until used in subsequent binding experiments. […]
For test compounds, these are solubilized in 50% dimethylsulfoxide (DMSO) and added in 20.0 μl volume to a final incubation volume of 200 μl. […] The radioactivity trapped on the filter disk by the ligand-receptor complex is assessed by liquid scintillation counting in a Packard LS Counter, with an efficiency of 65% for tritium. The data are analyzed for IC50 values by the LUNDON-2 program for competition (LUNDON SOFTWARE, Ohio).

T1 sequence (P30560 whole entry): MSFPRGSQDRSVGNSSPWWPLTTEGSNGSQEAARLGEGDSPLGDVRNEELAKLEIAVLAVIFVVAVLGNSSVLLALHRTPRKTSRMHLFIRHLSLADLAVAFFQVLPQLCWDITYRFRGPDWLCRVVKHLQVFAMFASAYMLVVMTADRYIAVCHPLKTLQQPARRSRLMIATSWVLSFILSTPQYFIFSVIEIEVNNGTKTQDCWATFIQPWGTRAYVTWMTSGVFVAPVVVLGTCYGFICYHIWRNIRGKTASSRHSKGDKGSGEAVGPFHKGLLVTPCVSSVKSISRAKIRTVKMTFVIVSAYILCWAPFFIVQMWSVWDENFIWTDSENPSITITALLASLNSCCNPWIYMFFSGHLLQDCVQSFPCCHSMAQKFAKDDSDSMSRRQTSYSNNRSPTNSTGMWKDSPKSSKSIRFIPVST

| IC50 | SMILES |
| --- | --- |
| 400 nM | O=C(c1ccc(-c2ccccn2)cc1)N1Cc2cccn2Cc2ccccc21 [Example 9, 10,11-Dihydro-10-[4-(2-pyridinyl)benzoyl]-5H-pyrrolo[2,1-c][1,4]benzodiazepine] |
| 670 nM | O=C(c1ccc(-c2ccccc2C(F)(F)F)cc1)N1Cc2cccn2Cc2ccccc21 [Example 8] |
